{
  "source": "patent US11591353B2",
  "about": "(Mindset Pharma Inc., priority 2020, dated 2023)",
  "key": {"[1]": {"molecular_target": "human 5-HT2A (h5-HT2A) receptor (Homo sapiens (Human), UniProt P28223)", "assay": "FLIPR assay, human 5-HT2A receptor under agonist mode", "type": "cell-based", "experimental": "• I. Assessment of the activated effect of exemplary compounds of Formula I targeting on human 5-HT2A (h5-HT2A) receptor under agonist mode: Compound Preparation and Assay Controls I.a. Reagent and Materials:\n1. Culture the cells in cell culture medium (DMEM containing 10% FBS 1× penicillin-streptomycin 300 μg/ml G418 and 100 μg/ml hygromycin B) at 37° C., 5% (v/v) CO2.\n2. One day before the assays, detach the cell using TrypLE™ Express and count cells using cell counter.\n3. Seed 20000 cells/well in 30 μl/well culture medium to a 384-well cell plate and incubate the cells overnight at 37° C., 5% (v/v) CO2.\n4. On the assay day, prepare 2× dye solution following the manual of the FLIPR® Calcium 6 Assay Kit: i. Dilute the dye with assay buffer (20 mM HEPES in 1×HBSS, PH7.4); ii. Add probenecid to the final concentration of 5 mM; iii. Vortex vigorously for 1-2 minutes.\n5. Medium from cell plate by flicking the cell plate on towel papers.\n6. Add 10 μl of assay buffer and 10 μl of 2× dye solution to each well of the cell plate.\n7. Put the cell plate on plate shaker, agitate the plate at 600 rpm for 2 minutes. Incubate the plate at 37° C. for 2 hours followed by additional 15-minute incubation at 25° C.\n8. Prepare 3× compound in assay buffer: a. Dilute reference compounds to required concentration with DMSO. Add the compounds to a 384-well compound plate; b. Perform serial dilutions; c. Add 10 mM test compounds to the compound plate, perform 3-fold serial dilutions. d. […] Add 20 μl/well assay buffer to the compound plate; f. Mix the plate on plate shaker for 2 mins;\ni. The normalized fluorescence reading (RFU) is calculated as shown follow, while Fmax and Fmin stand for maximum and minimum of calcium signal during defined time window: RFU=Fmax−Fmin\nii. Calculate the percentage activation by using following equation: […]\niii. Calculate EC50 by fitting % activation against log of compound concentrations with Hill equation using XLfit."}, "[2]": {"assay": "Liver microsomes stability, human", "conditions": "for half-life at 2 μM / microsomal CLint at 2 μM: microsomes; for Remaining Percentage (%) after 60 min Human: with NADPH, 2 μM, 0.5 mg/mL microsomes", "experimental": "(§1) The objective of this study was to estimate in vitro metabolic stability of I-12 in pooled human, male rat and male mouse liver microsomes. The concentrations of parent compounds in reaction systems were evaluated by LC-MS/MS for estimating the stability in pooled human, male rat and male mouse liver microsomes. The in vitro intrinsic clearances of test compounds were determined as well.\n(§2) A master solution in the “Incubation Plate” containing phosphate buffer, ultra-pure H2O, MgCl2 solution and liver microsomes was made according to Table-3. The mixture was pre-warmed at 37° C. water bath for 5 minutes.\n(§3) 40 μL of 10 mM NADPH solution was added to each well. The final concentration of NADPH was 1 mM. The negative control samples were prepared by replacing NADPH with 40 μL of ultra-pure H2O. Samples were prepared in duplicate. Negative controls were prepared in singlet.\n(§4) The reaction was started with the addition of 4 μL of 200 μM exemplary test compounds of the application or control compounds to each master solution to get the final concentration of 2 μM. This study was performed in duplicate.\n(§5) Aliquots of 50 μL were taken from the reaction solution at 0, 15, 30, 45 and 60 minutes. The reaction solutions were stopped by the addition of 4 volumes of cold methanol with IS (100 nM alprazolam, 200 nM imipramine, 200 nM labetalol and 2 μM ketoprofen). Samples were centrifuged at 3,220 g for 40 minutes. Aliquot of 90 μL of the supernatant was mixed with 90 μL of ultra-pure H2O and then was used for LC-MS/MS analysis.\n(§6) LC/MS analysis was performed for all samples from this study using a Shimadzu liquid chromatograph separation system equipped with degasser DGU-20A5R; solvent delivery unit LC-30AD; system controller SIL-30AC; column oven CTO-30A; CTC Analytics HTC PAL System. Mass spectrometric analysis was performed using an Triple Quad™ 5500 instrument.\n(§7) All calculations were carried out using Microsoft Excel. Peak area ratios of test compound to internal standard (listed in the below table) were determined from extracted ion chromatograms.\n(§8) All calculations were carried out using Microsoft Excel. Peak areas were determined from extracted ion chromatograms. The slope value, k, was determined by linear regression of the natural logarithm of the remaining percentage of the parent drug vs. incubation time curve.\n(§9) Conversion of the in vitro t1/2 (min) into the in vitro intrinsic clearance (in vitro CLint, in μL/min/mg proteins) was done using the following equation (mean of duplicate determinations): […]"}, "[3]": {"assay": "Liver microsomes stability, rat", "conditions": "for half-life at 2 μM / microsomal CLint at 2 μM: male, rat, microsomes; for Remaining Percentage (%) after 60 min Rat: with NADPH, 2 μM, 0.5 mg/mL microsomes", "experimental": "as §1, §2, §3, §4, §5, §6, §7, §8, §9"}, "[4]": {"assay": "Liver microsomes stability, mouse", "conditions": "for half-life at 2 μM / microsomal CLint at 2 μM: male, mouse, microsomes; for Remaining Percentage (%) after 60 min Mouse: with NADPH, 2 μM, 0.5 mg/mL microsomes", "experimental": "as §1, §2, §3, §4, §5, §6, §7, §8, §9"}, "[5]": {"assay": "In vivo pharmacokinetics of I-28 and its metabolite I-45 in mice (i.v. and p.o.)", "parameters": "species or system Male C57 BL/6 mice", "experimental": "Male C57 BL/6 mice (25-30 g) from Charles River Labs were acclimatized for a minimum of 5 days prior to dosing. Body weights were recorded on the day of dosing.\nAnimals dosed p.o. were deprived of food overnight and fed ˜2 h following dosing.\nFormulations were administered intravenously (i.v.) via the tail vein or orally (p.o.) by gavage with disposable feeding needles.\nSerial blood samples were collected via tail snip. Terminal blood samples were collected under isoflurane anesthesia by cardiac puncture.\nAll blood samples were transferred into K2EDTA tubes on wet ice and centrifuged within 5 min (3200×g for 5 min at 4° C.) to obtain plasma. Plasma were stored at −80° C. until analysis.\nAB Sciex QTRAP 4000 or 6500 MS/MS system equipped with an LC system with a binary pump, a solvent degasser, a thermostated column compartment and a multiplate autosampler. i. Analysis software: Phoenix® WinNonlin® 8.2 (Pharsight, Certara, Mountainview, Calif.) ii. Analysis methods: non-compartmental analysis, linear up/log down trapezoidal rule iii. PK parameters: C0, t1/2, AUC0-tlast, AUC0-∞, CL, VSS, MRT, tmax(po), Cmax(po), F, as appropriate C0 concentration extrapolated to time zero following an i.v. dose tmax time at which maximum concentration is observed Cmax maximum observed concentration Apparent t1/2 apparent terminal half-life area under the concentration vs time curve from time 0 to the time of the last AUC0-tlast measurable concentration AUC0-inf area under the concentration vs time curve from time 0 to infinity CL systemic clearance MRT0-inf mean residence time from time zero to infinity VSS steady-state volume of distribution F bioavailability=(Dose^iv*AUC^po)/(Dose^po*AUC^iv)*100"}, "[6]": {"conditions": "male, C57 BL/6, iv, i.v., I-28 2.2 mg/kg, I-28 in mouse plasma, n = 2"}, "[7]": {"conditions": "i.v., Metabolite (I-45) alone 1 mg/kg, mouse plasma"}, "[8]": {"conditions": "p.o., Metabolite (I-45) alone 10 mg/kg, mouse plasma"}},
  "data": [
    {"smiles": "[2H]C([2H])([2H])N(C([2H])([2H])[2H])C([2H])([2H])C([2H])([2H])c1c[nH]c2cccc(OC(=O)CCCCCCC/C=C\\C/C=C\\CCCCC)c12", "note": "[Compound I-28, 3-(2-(bis(methyl-d3)amino)ethyl-1,1,2,2-d4)-1H-indol-4-yl (9Z,12Z)-octadeca-9,12-dienoate]", "values": [
      {"measurement": "EC50", "setting": "[1]", "result": 965, "unit": "nM"},
      {"measurement": "half-life at 2 μM", "setting": "[2]; human", "result": 2.23, "unit": "h"},
      {"measurement": "microsomal CLint at 2 μM", "setting": "[2]; human", "result": 10.4, "unit": "µL/min/mg"},
      {"measurement": "metabolic stability in liver microsomes (in words)", "setting": "[2]; human, rat and mouse liver microsomes, 60 minute", "result": "rapidly metabolized"},
      {"measurement": "Remaining Percentage (%) after 60 min Human", "setting": "[2]", "result": 73.27, "unit": "%"},
      {"measurement": "half-life at 2 μM", "setting": "[3]", "result": 0.659, "unit": "h"},
      {"measurement": "microsomal CLint at 2 μM", "setting": "[3]", "result": 35.1, "unit": "µL/min/mg"},
      {"measurement": "Remaining Percentage (%) after 60 min Rat", "setting": "[3]", "result": 34.92, "unit": "%"},
      {"measurement": "half-life at 2 μM", "setting": "[4]", "result": 0.276, "unit": "h"},
      {"measurement": "microsomal CLint at 2 μM", "setting": "[4]", "result": 83.7, "unit": "µL/min/mg"},
      {"measurement": "Remaining Percentage (%) after 60 min Mouse", "setting": "[4]", "result": 8.12, "unit": "%"},
      {"measurement": "AUC0-inf/Dose (h*kg*ng/mL/mg)", "setting": "[5]; i.v., I-28 2.2 mg/kg, I-28 in mouse plasma, n = 2", "result": "62.1 (n = 2) h*kg*ng/mL/mg"},
      {"measurement": "C0", "setting": "[5]; male, C57 BL/6, iv, i.v., I-28 2.2 mg/kg (equimolar to 1 mg/kg metabolite), I-28 in mouse plasma", "result": "448 ± 411", "unit": "ng/mL"},
      {"measurement": "AUC(0-inf)", "setting": "[5]; [6]", "result": 137, "unit": "ng·h/mL"},
      {"measurement": "clearance", "setting": "[5]; [6]", "result": 385, "unit": "mL/min/kg"},
      {"measurement": "half-life", "setting": "[5]; male, C57 BL/6, iv, i.v., I-28 2.2 mg/kg, I-28 in mouse plasma, n = 2, read-out: Apparent t1/2 (converted)", "result": 4.92, "unit": "h"},
      {"measurement": "MRT inf", "setting": "[5]; male, C57 BL/6, iv, i.v., I-28 2.2 mg/kg, I-28 in mouse plasma, n = 2, read-out: MRT0-inf", "result": 0.977, "unit": "h"},
      {"measurement": "Vd", "setting": "[5]; male, C57 BL/6, iv, i.v., I-28 2.2 mg/kg, I-28 in mouse plasma, n = 2, read-out: VSS", "result": 17, "unit": "L/kg"},
      {"measurement": "AUC(0-t)", "setting": "[5]; male, C57 BL/6, iv, i.v., I-28 2.2 mg/kg, I-28 in mouse plasma, read-out: AUC0-tlast", "result": "110 ± 85.9", "unit": "ng·h/mL"},
      {"measurement": "Tmax", "setting": "[5]; male, C57 BL/6, po, p.o., I-28 22 mg/kg (equimolar to 10 mg/kg metabolite), I-28 in mouse plasma", "result": "2.17 ± 3.32", "unit": "h"},
      {"measurement": "Cmax", "setting": "[5]; male, C57 BL/6, po, p.o., I-28 22 mg/kg, I-28 in mouse plasma", "result": "1.06 ± 0.447", "unit": "ng/mL"},
      {"measurement": "Cmax/Dose", "setting": "[5]; p.o., I-28 22 mg/kg, I-28 in mouse plasma", "result": "0.0482 ± 0.0203", "unit": "kg·ng/mL/mg"}
    ]},
    {"smiles": "[2H]C([2H])([2H])N(C([2H])([2H])[2H])C([2H])([2H])C([2H])([2H])c1c[nH]c2cccc(O)c12", "note": "[Compound I-45, 3-(2-(bis(methyl-d3)amino)ethyl-1,1,2,2-d4)-1H-indol-4-ol]", "values": [
      {"measurement": "agonist effect on h5-HT2A receptor (in words)", "setting": "[1]; agonist mode, FLIPR", "result": "active agonist"},
      {"measurement": "half-life at 2 μM", "setting": "[2]; human", "result": 5.01, "unit": "h"},
      {"measurement": "microsomal CLint at 2 μM", "setting": "[2]; human", "result": 4.61, "unit": "µL/min/mg"},
      {"measurement": "Remaining Percentage (%) after 60 min Human", "setting": "[2]", "result": 87.08, "unit": "%"},
      {"measurement": "half-life at 2 μM", "setting": "[3]", "result": 1.76, "unit": "h"},
      {"measurement": "microsomal CLint at 2 μM", "setting": "[3]", "result": 13.1, "unit": "µL/min/mg"},
      {"measurement": "Remaining Percentage (%) after 60 min Rat", "setting": "[3]", "result": 67.47, "unit": "%"},
      {"measurement": "half-life at 2 μM", "setting": "[4]", "result": 4.09, "unit": "h"},
      {"measurement": "microsomal CLint at 2 μM", "setting": "[4]", "result": 5.65, "unit": "µL/min/mg"},
      {"measurement": "Remaining Percentage (%) after 60 min Mouse", "setting": "[4]", "result": 84.40, "unit": "%"},
      {"measurement": "AUC0-inf/Dose", "setting": "[5]; [7]", "result": "181 ± 30.8", "unit": "kg·ng·h/mL/mg"},
      {"measurement": "Apparent t1/2", "setting": "[5]; [7]", "result": "5.32 ± 2.99", "unit": "h"},
      {"measurement": "C0", "setting": "[5]; male, C57 BL/6, mouse, plasma, iv, 1 mg/kg", "result": "566 ± 85", "unit": "ng/mL"},
      {"measurement": "AUC0-inf/Dose", "setting": "[5]; [8]", "result": "79.5 ± 12.1", "unit": "kg·ng·h/mL/mg"},
      {"measurement": "Apparent t1/2", "setting": "[5]; [8]", "result": "4.52 ± 0.481", "unit": "h"},
      {"measurement": "Cmax/Dose", "setting": "[5]; [8]", "result": "70.4 ± 12.8", "unit": "kg·ng/mL/mg"}
    ]}
  ]
}
